Columns and labels:
[1] = system: Female C3H/HeOuJ mice sensitized against bovine whey protein; conditions: oral gavage 50 or 100 mg/mouse 24 and 4 hours before sensitization
RBL-2H3 cells = conditions: glycine concentration series from 500 μg/ml, 20 hours incubation, concentration dependent
Experimental: RBL-2H3 cells were sensitized by 100 ng/ml mouse IgE α-dinitrophenyl in culture medium (DMEM with 10% FBS and 1% penicillin/[…]) and plate out 100 μl/well in a 96-well flat bottom plate. After 18 hrs of culturing at 37° C. with 5% CO2, the cells were washed 4 times with 200 μl Tyrode's buffer (130 mM NaCl, […], 1.4 mM CaCl2, 1 mM MgCl2, 5.6 mM glucose, 10 mM HEPES, and 0.1% bovine serum albumin in distilled water, pH 7.4). 25 μl glycine in a concentration series starting form 500 μg/ml and diluted 1:1 in Tyrode's buffer (component), 25 μl Tyrode's buffer (controls) or 25 μl quercetin 100 μM (positive control) were added to the cells. 25 μl of DNP-BSA (100 ng/ml) and 50 μl Tyrode's buffer were added to each component well. After 20 hours incubation at 37° C. with 5% CO2 90 μl of the cells supernatant was collected and stored at −80° C. for cytokine analysis by multiplex bead immunoassay.

[2] = system: human peripheral blood mononuclear cells (PBMCs); assay: LPS induced TNF-α synthesis by human PBMCs (ELISA); format: cell-based; conditions: FIG. 3
Description: The next experiment done by the inventor relates to the question whether amino acids are able to enhance immune effects of free glycine. To investigate this, human peripheral blood mononuclear cells (PBMCs) were stimulated with lipopolysaccharide (LPS) in the presence of free glycine in combination with different levels of free glutamine In short: Human PBMCs were obtained from buffy coats supplied by the blood bank and prepared by Ficoll gradient centrifugation according to standard methods. The recovered PBMCs were washed with PBS and cultured in RPMI-1640 containing, penicillin, streptomycin and 5% Fetal call serum (FCS), 1.5E5 cells/well (96-wells culture plate). The cells were stimulated with LPS (E. coli, 055:B5, 10 ng/ml) for 20 hr after 1 hr pre-incubation with different levels of glycine in combination with different levels of glutamine. The tested levels of glycine and glutamine were also tested separately. TNF-α levels were detected in the supernatant of the cells using an ELISA kit.

SMILES	allergic skin response (ear swelling) after intradermal whey injection ([1]; effect concentration dependent, FIG. 2A)	mMCP1 release (by intestinal mast cells) after an oral allergen challenge ([1]; serum one hour after 50 mg whey oral challenge, FIG. 2B)	production of whey-specific IgE ([1]; serum, ELISA, FIG. 2C)	crosslinking induced TNFα production (RBL-2H3 cells; FIG. 1A)	crosslinking induced IL-4 production (RBL-2H3 cells; FIG. 1B)	crosslinking induced IL-13 production (RBL-2H3 cells; FIG. 1C)	LPS induced TNF-α synthesis by PBMCs ([2]; LPS 10 ng/ml for 20 hr after 1 hr pre-incubation)	effect of glutamine on glycine inhibition of LPS induced TNF-α synthesis ([2]; glutamine combined with glycine at specific ratios, LPS 10 ng/ml 20 hr)
NCC(=O)O [Glycine, glycine]	inhibits the allergy development	inhibits allergy development	inhibits	inhibits	inhibits	inhibits	inhibited	
NC(=O)CC[C@H](N)C(=O)O [glutamine]								enhanced this effect synergistically
